Tests used:
[1] = system: Human immunodeficiency virus 1; test: Antiviral activity against HIV-1 HE infected in human CEM/0 cells assessed as inhibition of virus-induced cytopathogenicity measured after 4 to 5 days by microscopic analysis; type: functional, organism-based; conditions: Human immunodeficiency virus 1, HE, CCRF-CEM
[2] = system: Human immunodeficiency virus 2; test: Antiviral activity against HIV-2 ROD infected in human CEM/0 cells assessed as inhibition of virus-induced cytopathogenicity measured after 4 to 5 days by microscopic analysis; type: functional, organism-based; conditions: Human immunodeficiency virus 2, ROD, CCRF-CEM
[3] = system: Human immunodeficiency virus 2; test: Antiviral activity against HIV-2 ROD infected in human CEM/TK- cells assessed as inhibition of virus-induced cytopathogenicity measured after 4 to 5 days by microscopic analysis; type: functional, organism-based; conditions: Human immunodeficiency virus 2, ROD, CCRF-CEM
[4] = Lipophilicity of the compound assessed as retention time by RP-18-HPLC analysis; type: physicochemical
[5] = Half life of the compound in PBS buffer at pH 7.3 by RP-18-HPLC analysis; type: physicochemical
[6] = Cytotoxicity against human CEM/0 cells assessed as inhibition of cell proliferation; type: toxicity, cell-based, CCRF-CEM
[7] = Selectivity index, ratio of CC50 for cytotoxicity against human CEM/0 cells to EC50 for antiviral activity against HIV-2 ROD infected in human CEM/0 cells; type: toxicity, cell-based; conditions: read-out: Ratio CC50/EC50
[8] = Half life of the compound in human CEM/0 extracts by RP-18-HPLC analysis; type: ADME, CCRF-CEM; conditions: CEM/0 cell extracts
[9] = Stability of compound assessed as pig liver esterase mediated hydrolysis by measuring half life by RP-18-HPLC analysis; type: ADME, tissue-based, Sus scrofa
[10] = Drug metabolism in PBS buffer assessed as d4TMP metabolite formation at pH 7.3 by RP-18-HPLC analysis; type: ADME
[11] = Drug metabolism assessed as d4TTP metabolite formation in presence of pig liver esterase by RP-18-HPLC analysis; type: ADME, Sus scrofa; conditions: isolated protein
[12] = Drug metabolism in human CEM/0 cells assessed as half life of d4TTP by RP18-HPLC analysis; type: ADME, cell-based; conditions: ccrf-cem
[13] = Drug metabolism in human CEM/0 cells assessed as d4TDP metabolite formation by RP18-HPLC analysis; type: ADME, cell-based; conditions: ccrf-cem
[14] = Drug metabolism in citrate-stabilized human plasma assessed as d4TTP formation by RP18-HPLC analysis; type: ADME, cell-free
[15] = Drug metabolism in citrate-stabilized human plasma assessed as d4TDP formation by RP18-HPLC analysis; type: ADME, cell-free
[16] = Drug metabolism in citrate-stabilized human plasma assessed as d4TMP formation by RP18-HPLC analysis; type: ADME, cell-free
[17] = Drug metabolism in citrate-stabilized human plasma assessed as [hydroxy-[hydroxy-[hydroxy-[[(2S,5R)-5-(5-methyl-2,4-dioxo-pyrimidin-1-yl)-2,5-dihydrofuran-2-yl]methoxy]phosphoryl]oxy-phosphoryl]oxy-phosphoryl] octadecyl hydrogen phosphate formation by RP18-HPLC analysis; type: ADME, cell-free
[18] = Drug metabolism in citrate-stabilized human plasma assessed as [hydroxy-[hydroxy-[hydroxy-[[(2S,5R)-5-(5-methyl-2,4-dioxo-pyrimidin-1-yl)-2,5-dihydrofuran-2-yl]methoxy]phosphoryl]oxy-phosphoryl]oxy-phosphoryl]oxy-octadecyl-phosphinic acid formation by RP18-HPLC analysis; type: ADME, cell-free
[19] = Drug metabolism assessed as [4-[[hydroxy-[hydroxy-[hydroxy-[hydroxy-[[(2S,5R)-5-(5-methyl-2,4-dioxo-pyrimidin-1-yl)-2,5-dihydrofuran-2-yl]methoxy]phosphoryl]oxy-phosphoryl]oxy-phosphoryl]oxy-phosphoryl]oxymethyl]phenyl]-decanoate formation in presence of pig liver esterase by RP-18-HPLC analysis; type: ADME, Sus scrofa; conditions: isolated protein
[20] = Drug metabolism assessed as d4T4P metabolite formation in presence of pig liver esterase by RP-18-HPLC analysis; type: ADME, Sus scrofa; conditions: isolated protein
[21] = Drug metabolism in human CEM/0 cells assessed as [4-[[hydroxy-[hydroxy-[hydroxy-[hydroxy-[[(2S,5R)-5-(5-methyl-2,4-dioxo-pyrimidin-1-yl)-2,5-dihydrofuran-2-yl]methoxy]phosphoryl]oxy-phosphoryl]oxy-phosphoryl]oxy-phosphoryl]oxymethyl]phenyl]-decanoate formation by RP18-HPLC analysis; type: ADME, cell-based; conditions: ccrf-cem
[22] = Drug metabolism in human CEM/0 cells assessed as half life of d4T4P by RP18-HPLC analysis; type: ADME, cell-based; conditions: ccrf-cem
[23] = Drug metabolism in citrate-stabilized human plasma assessed as [4-[[hydroxy-[hydroxy-[hydroxy-[hydroxy-[[(2S,5R)-5-(5-methyl-2,4-dioxo-pyrimidin-1-yl)-2,5-dihydrofuran-2-yl]methoxy]phosphoryl]oxy-phosphoryl]oxy-phosphoryl]oxy-phosphoryl]oxymethyl]phenyl]-decanoate formation by RP-18-HPLC analysis; type: ADME, cell-free
[24] = Drug metabolism in citrate-stabilized human plasma assessed as d4T formation by RP-18-HPLC analysis; type: ADME, cell-free

CCCCCCCCCCCCCCCCCCP(=O)(OCCCC)OP(=O)(O)OP(=O)(O)OC[C@@H]1C=C[C@H](n2cc(C)c(=O)[nH]c2=O)O1 (stereo partly specified)
EC50 [1]: 31 nM | EC50 [2]: 35 nM | EC50 [3]: 18 nM

CCCCCCCCCCCCCCCCOC(=O)Oc1ccc(COP(=O)(OCc2ccc(OC(=O)CCCC)cc2)OP(=O)(O)OP(=O)(O)OP(=O)(O)OC[C@@H]2C=C[C@H](n3cc(C)c(=O)[nH]c3=O)O2)cc1 (stereo partly specified)
Retention_time [4]: 16 min

CCCCCCCCCCCCCCCCCCOP(=O)(OCc1ccc(OC(=O)CCCC)cc1)OP(=O)(O)OP(=O)(O)OC[C@@H]1C=C[C@H](n2cc(C)c(=O)[nH]c2=O)O1 (stereo partly specified)
half-life [5]: 237 h | EC50 [1]: 180 nM | EC50 [2]: 160 nM | EC50 [3]: 170 nM | CC50 [6]: 13000 nM | selectivity ratio [7]: 76

CCCCCCCCCCCCCCCCCCP(=O)(OCc1ccc(OC(=O)CCCC)cc1)OP(=O)(O)OP(=O)(O)OC[C@@H]1C=C[C@H](n2cc(C)c(=O)[nH]c2=O)O1 (stereo partly specified)
half-life [5]: 646 h | EC50 [1]: 7 nM | EC50 [2]: 21 nM | EC50 [3]: 42 nM | selectivity ratio [7]: 452

CCCCCCCCCCCCOP(=O)(OCCCCCCCCCCCC)OP(=O)(O)OP(=O)(O)OP(=O)(O)OC[C@@H]1C=C[C@H](n2cc(C)c(=O)[nH]c2=O)O1
Retention_time [4]: 14.7 min

CCCCCCCCCC(=O)Oc1ccc(COP(=O)(OCc2ccc(OC(=O)CCCCCCCCC)cc2)OP(=O)(O)OP(=O)(O)OC[C@@H]2C=C[C@H](n3cc(C)c(=O)[nH]c3=O)O2)cc1
half-life [5]: 44 h | half-life [8]: 2.8 h | half-life [9]: 4.92 min | Retention_time [4]: 16.3 min

CCCCCCCCCCCCCCCCCCP(=O)(OCCCC)OP(=O)(O)OP(=O)(O)OP(=O)(O)OC[C@@H]1C=C[C@H](n2cc(C)c(=O)[nH]c2=O)O1 (stereo partly specified)
Retention_time [4]: 14.4 min | Drug metabolism [10]: Metabolite_Detected | Drug metabolism [11]: Metabolite_Detected | t1/2 [12]: 0.633 h | Drug metabolism [13]: Metabolite_Detected | Drug metabolism [14]: Metabolite_Notdetected | Drug metabolism [15]: Metabolite_Notdetected | Drug metabolism [16]: Metabolite_Notdetected | Drug metabolism [17]: Metabolite_Notdetected | Drug metabolism [18]: Metabolite_Notdetected

CCCCCCCCCCCCCCCCCCOP(=O)(O)OP(=O)(O)OP(=O)(O)OP(=O)(O)OC[C@@H]1C=C[C@H](n2cc(C)c(=O)[nH]c2=O)O1
Retention_time [4]: 13.3 min

CCCCCCCCCC(=O)Oc1ccc(COP(=O)(OCc2ccc(OC(=O)CCCCCCCCC)cc2)OP(=O)(O)OP(=O)(O)OP(=O)(O)OC[C@@H]2C=C[C@H](n3cc(C)c(=O)[nH]c3=O)O2)cc1
Retention_time [4]: 15.2 min | Drug metabolism [11]: Metabolite_Detected | Drug metabolism [19]: Metabolite_Detected | Drug metabolism [20]: Metabolite_Detected | t1/2 [12]: 0.633 h | Drug metabolism [21]: Metabolite_Detected | t1/2 [22]: 0.367 h | Drug metabolism [23]: Metabolite_Detected | Drug metabolism [24]: Metabolite_Detected

CCCCCCCCCCCCCCCCCCP(=O)(OCC(CC)CCCC)OP(=O)(O)OP(=O)(O)OP(=O)(O)OC[C@@H]1C=C[C@H](n2cc(C)c(=O)[nH]c2=O)O1 (stereo partly specified)
Retention_time [4]: 15.1 min
